Reference: US11111251B2, “Positive allosteric modulators of the muscarinic acetylcholine receptor M1” (Vanderbilt University, priority 2016, dated 2021)

Target: T1, human mAChR M1 (Homo sapiens, UniProt P11229)
T1 sequence (P11229 1-460): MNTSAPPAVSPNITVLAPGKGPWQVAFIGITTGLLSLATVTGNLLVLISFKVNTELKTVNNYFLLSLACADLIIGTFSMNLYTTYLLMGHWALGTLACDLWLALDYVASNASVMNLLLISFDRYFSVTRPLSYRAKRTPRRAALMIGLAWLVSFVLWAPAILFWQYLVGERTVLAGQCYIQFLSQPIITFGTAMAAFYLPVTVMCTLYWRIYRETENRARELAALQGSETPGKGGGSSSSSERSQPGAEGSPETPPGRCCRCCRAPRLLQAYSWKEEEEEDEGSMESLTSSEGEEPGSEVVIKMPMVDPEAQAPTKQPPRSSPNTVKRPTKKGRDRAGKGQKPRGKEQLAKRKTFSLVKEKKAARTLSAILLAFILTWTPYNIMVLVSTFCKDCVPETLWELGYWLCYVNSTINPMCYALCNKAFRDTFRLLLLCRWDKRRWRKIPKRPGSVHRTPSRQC
Experiment: mAChR M1 cell-based functional assay: calcium mobilization, positive allosteric modulator mode (increase in EC20 acetylcholine response)
Conditions: Table 2, human M1; for EC50: read-out: Human M1 EC50; for Emax: read-out: Human M1 Emax (%)
Summary of the method: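 Calcium-flux assay in CHO-K1 cells stably expressing human M1, loaded with Fluo-4 AM (50 min, 37 °C) and read at 1 Hz. Compound (11-point, 1:3 series) was added at 4 s, EC20 acetylcholine at 144 s and EC80 at 230 s. PAM activity is the concentration-dependent rise in the EC20 response, fitted with a four-parameter logistic.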

Compound	EC50	Emax
Cn1cc(-c2ccc(Cc3cc(C(=O)N[C@H]4CCOC[C@@H]4O)nc4ccsc34)cn2)cn1 [Compound 225, N-[(3R,4S)-3-hydroxytetrahydropyran-4-yl]-7-[[6-(1-methylpyrazol-4-yl)-3-pyridyl]methyl]thieno[3,2-b]pyridine-5-carboxamide]	7.31 nM	63.6%
Cn1cc(-c2ccc(Cc3cc(C(=O)N[C@H]4CCCCC[C@@H]4O)nc4ccsc34)cn2)cn1 [Compound 226, N-[(1S,2S)-2-hydroxycycloheptyl]-7-[[6-(1-methylpyrazol-4-yl)-3-pyridyl]methyl]thieno[3,2-b]pyridine-5-carboxamide]	9.36 nM	66.2%
O=C(N[C@@H]1CC[C@H]1O)c1cc(Cc2ccc(-n3cccn3)cc2)c2sccc2n1 [Compound 227, N-[(1R,2R)-2-hydroxycyclobutyl]-7-[(4-pyrazol-1-ylphenyl)methyl]thieno[3,2-b]pyridine-5-carboxamide]	125 nM	79.8%
O=C(NC1CCOCC1)c1cc(Cc2ccc(-n3cccn3)cc2)c2sccc2n1 [Compound 228, 7-[(4-pyrazol-1-ylphenyl)methyl]-N-tetrahydropyran-4-yl-thieno[3,2-b]pyridine-5-carboxamide]	160 nM	81.8%
Cc1ccc([C@H](F)c2cc(C(=O)N[C@H]3CCCC[C@@H]3O)nc3ccsc23)cn1 [Compound 233]	161 nM	67.8%
Cc1ccc([C@@H](F)c2cc(C(=O)N[C@H]3CCCC[C@@H]3O)nc3ccsc23)cn1 [Compound 234]	1370 nM	64.6%
Cc1ccc(Cc2cc(C(=O)NC3CCCCCC3(C)O)nc3ccsc23)cn1 (centres unmarked) [Compound 235, N-(2-hydroxy-2-methyl-cycloheptyl)-7-[(6-methyl-3-pyridyl)methyl]thieno[3,2-b]pyridine-5-carboxamide]	1010 nM	71.1%
Cc1cc2nc(C(=O)N[C@H]3CCC[C@@H]3O)cc(Cc3ccc(-n4cccn4)cc3)c2s1 [Compound 236, N-[(1S,2S)-2-hydroxycyclopentyl]-2-methyl-7-[(4-pyrazol-1-ylphenyl)methyl]thieno[3,2-b]pyridine-5-carboxamide]	2680 nM	78.2%
Cc1cc2nc(C(=O)N[C@H]3CCCC[C@@H]3O)cc(Cc3ccc(-n4cccn4)cc3)c2s1 [Compound 237, N-[(1S,2S)-2-hydroxycyclohexyl]-2-methyl-7-[(4-pyrazol-1-ylphenyl)methyl]thieno[3,2-b]pyridine-5-carboxamide]	455 nM	85.2%
Cc1cc2nc(C(=O)N[C@H]3CCOC[C@@H]3O)cc(Cc3ccc(-n4cccn4)cc3)c2s1 [Compound 238, N-[(3R,4S)-3-hydroxytetrahydropyran-4-yl]-2-methyl-7-[(4-pyrazol-1-ylphenyl)methyl]thieno[3,2-b]pyridine-5-carboxamide]	108 nM	84.7%
Cc1cc2nc(C(=O)NC3CCOCC3)cc(Cc3ccc(-n4cccn4)cc3)c2s1 [Compound 239, 2-methyl-7-[(4-pyrazol-1-ylphenyl)methyl]-N-tetrahydropyran-4-yl-thieno[3,2-b]pyridine-5-carboxamide]	3080 nM	81.5%
Cc1nn(C)c(C)c1-c1ccc(Cc2cc(C(=O)NC3CC4(COC4)C3)nc3ccsc23)cc1 [Compound 241, N-(2-oxaspiro[3.3]heptan-6-yl)-7-[[4-(1,3,5-trimethylpyrazol-4-yl)phenyl]methyl]thieno[3,2-b]pyridine-5-carboxamide]	> 10000 nM	18.8%
Cc1nn(C)c(C)c1-c1ccc(Cc2cc(C(=O)NC3CCOCC3)nc3ccsc23)cc1 [Compound 243, N-tetrahydropyran-4-yl-7-[[4-(1,3,5-trimethylpyrazol-4-yl)phenyl]methyl]thieno[3,2-b]pyridine-5-carboxamide]	> 10000 nM	17.9%
Cc1nn(C)cc1-c1ccc(Cc2cc(C(=O)NC3COC3)nc3ccsc23)cc1 [Compound 244, 7-[[4-(1,3-dimethylpyrazol-4-yl)phenyl]methyl]-N-(oxetan-3-yl)thieno[3,2-b]pyridine-5-carboxamide]	187 nM	15%

Further lines, results first:

EC50	Emax	Compound
5950 nM	81.1%	CN(C(=O)c1cc(Cc2ccc(-c3cscn3)cc2)c2sccc2n1)C1CCOCC1 [Compound 214, N-methyl-N-tetrahydropyran-4-yl-7-[(4-thiazol-4-ylphenyl)methyl]thieno[3,2-b]pyridine-5-carboxamide]
10.1 nM	72.7%	O=C(N[C@H]1CCOC[C@@H]1O)c1cc(Cc2ccc(-c3cscn3)cc2)c2sccc2n1 [Compound 215, N-[(3R,4S)-3-hydroxytetrahydropyran-4-yl]-7-[(4-thiazol-4-ylphenyl)methyl]thieno[3,2-b]pyridine-5-carboxamide]
22 nM	81.2%	O=C(N[C@H]1COCC[C@@H]1O)c1cc(Cc2ccc(-c3cscn3)cc2)c2sccc2n1 [Compound 216]
45.4 nM	74.8%	O=C(N[C@H]1CCCC[C@@H]1O)c1cc(Cc2ccc(-c3cscn3)cc2)c2sccc2n1 [Compound 217, N-[(1S,2S)-2-hydroxycyclohexyl]-7-[(4-thiazol-4-ylphenyl)methyl]thieno[3,2-b]pyridine-5-carboxamide]
> 10000 nM	52.2%	CO[C@H]1CCCC[C@@H]1NC(=O)c1cc(Cc2ccc(-c3cscn3)cc2)c2sccc2n1 [Compound 218, N-[(1S,2S)-2-methoxycyclohexyl]-7-[(4-thiazol-4-ylphenyl)methyl]thieno[3,2-b]pyridine-5-carboxamide]
144 nM	73%	O=C(N[C@H]1CCCCC[C@@H]1O)c1cc(Cc2ccc(-c3cscn3)cc2)c2sccc2n1 [Compound 219, N-[(1S,2S)-2-hydroxycycloheptyl]-7-[(4-thiazol-4-ylphenyl)methyl]thieno[3,2-b]pyridine-5-carboxamide]
1280 nM	80.6%	O=C(NC1CCN2CCCC12)c1cc(Cc2ccc(-c3cscn3)cc2)c2sccc2n1 (centres unmarked) [Compound 220, N-(hexahydro-1H-pyrrolizin-1-yl)-7-[(4-thiazol-4-ylphenyl)methyl]thieno[3,2-b]pyridine-5-carboxamide]
595 nM	86.9%	O=C(NC1CCCNC1=O)c1cc(Cc2ccc(-c3cscn3)cc2)c2sccc2n1 (centres unmarked) [Compound 221, N-(2-oxo-3-piperidyl)-7-[(4-thiazol-4-ylphenyl)methyl]thieno[3,2-b]pyridine-5-carboxamide]
317 nM	80.3%	O=C(NC1CCCCNC1=O)c1cc(Cc2ccc(-c3cscn3)cc2)c2sccc2n1 (centres unmarked) [Compound 222, N-(2-oxoazepan-3-yl)-7-[(4-thiazol-4-ylphenyl)methyl]thieno[3,2-b]pyridine-5-carboxamide]
29.4 nM	79.9%	Cn1cc(-c2ccc(Cc3cc(C(=O)N[C@H]4CCC[C@@H]4O)nc4ccsc34)cn2)cn1 [Compound 223, N-[(1S,2S)-2-hydroxycyclopentyl]-7-[[6-(1-methylpyrazol-4-yl)-3-pyridyl]methyl]thieno[3,2-b]pyridine-5-carboxamide]
13.4 nM	71.2%	Cn1cc(-c2ccc(Cc3cc(C(=O)N[C@H]4CCCC[C@@H]4O)nc4ccsc34)cn2)cn1 [Compound 224, N-[(1S,2S)-2-hydroxycyclohexyl]-7-[[6-(1-methylpyrazol-4-yl)-3-pyridyl]methyl]thieno[3,2-b]pyridine-5-carboxamide]
27.1 nM	78.6%	Cn1cc(-c2ccc(Cc3cc(C(=O)NC4CCOCC4)nc4ccsc34)cc2)nn1 [Compound 229, 7-[[4-(1-methyltriazol-4-yl)phenyl]methyl]-N-tetrahydropyran-4-yl-thieno[3,2-b]pyridine-5-carboxamide]
175 nM	77.7%	Cc1nc(-c2ccc(Cc3cc(C(=O)NC4CCOCC4)nc4ccsc34)cc2)co1 [Compound 230, 7-[[4-(2-methyloxazol-4-yl)phenyl]methyl]-N-tetrahydropyran-4-yl-thieno[3,2-b]pyridine-5-carboxamide]
68.7 nM	88.5%	O=C(NC1CC2(COC2)C1)c1cc(Cc2ccc(-c3cscn3)cc2)c2sccc2n1 [Compound 231, N-(2-oxaspiro[3.3]heptan-6-yl)-7-[(4-thiazol-4-ylphenyl)methyl]thieno[3,2-b]pyridine-5-carboxamide]
134 nM	75.7%	O=C(NC1CCOCC1)c1cc(Cc2ccc(-c3cscn3)cc2)c2sccc2n1 [Compound 232, N-tetrahydropyran-4-yl-7-[(4-thiazol-4-ylphenyl)methyl]thieno[3,2-b]pyridine-5-carboxamide]
> 10000 nM	19.9%	Cc1nn(C)c(C)c1-c1ccc(Cc2cc(C(=O)N[C@@H]3CC[C@H]3O)nc3ccsc23)cc1 [Compound 240, N-[(1R,2R)-2-hydroxycyclobutyl]-7-[[4-(1,3,5-trimethylpyrazol-4-yl)phenyl]methyl]thieno[3,2-b]pyridine-5-carboxamide]
> 10000 nM	17.8%	Cc1nn(C)c(C)c1-c1ccc(Cc2cc(C(=O)N[C@H]3CCC[C@@H]3O)nc3ccsc23)cc1 [Compound 242]
